For 7 molecules, IC50 results are on record in patent US11046697B2, “Compounds and compositions useful for treating disorders related to NTRK” (BLUEPRINT MEDICINES CORPORATION, priority 2015, dated 2021).

Where two headings read alike, the source gives them in different places.

The IC50 is the concentration needed to halve the response being measured.

In one experiment the target is T1, wild type NTRK1 enzyme (Homo sapiens, UniProt P04629).
T1 construct: purchased BPS Bioscience 40280
The experiment is described as follows: NTRK1 Wild Type Assay at 1 mM ATP. Format: biochemical. As to conditions: 1 mM ATP; read-out: Enz NTRK1 IC50. The procedure: NTRK1 Wild Type Assay at 1 mM ATP
The reaction was stopped by the addition of 70 μL of Stop buffer (100 mM HEPES pH 7.5, 0.015% Brij 35, 35 mM EDTA and 0.2% of Coating Reagent 3 (Caliper Lifesciences)). The plate was then read on a Caliper EZReader 2 (protocol settings: −1.7 psi, upstream voltage −500, downstream voltage −3000, post sample sip 35s).

Experiment [1] deals with KM12 wild type colon carcinoma cell line harboring the TPM3-NTRK1 fusion protein. The experiment is described as follows: NTRK wild type cellular assay (CellTiter-Glo growth inhibition). The class given is cell-based. As to conditions: 72 hr, CellTiter-Glo, read-out: KM12 (WT) IC50. The essentials: (§1)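 KM12 (TPM3-NTRK1 fusion) or KM12 Cliff (G595R) cells at 1000 cells/well in 10% FBS media were dosed with compounds at varying concentrations in duplicate after overnight plating.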
(In general: ATP-based viability assays read luminescence as a measure of living cells.)

Experiment [2] concerns KM12 Cliff (G595R) cell line. Kind of experiment: NTRK G595R mutant cellular assay (CellTiter-Glo growth inhibition). Format: cell-based. The conditions noted are these: 72 hr, CellTiter-Glo. The essentials:
as §1

T1 sequence (P04629 440-796 limits assumed): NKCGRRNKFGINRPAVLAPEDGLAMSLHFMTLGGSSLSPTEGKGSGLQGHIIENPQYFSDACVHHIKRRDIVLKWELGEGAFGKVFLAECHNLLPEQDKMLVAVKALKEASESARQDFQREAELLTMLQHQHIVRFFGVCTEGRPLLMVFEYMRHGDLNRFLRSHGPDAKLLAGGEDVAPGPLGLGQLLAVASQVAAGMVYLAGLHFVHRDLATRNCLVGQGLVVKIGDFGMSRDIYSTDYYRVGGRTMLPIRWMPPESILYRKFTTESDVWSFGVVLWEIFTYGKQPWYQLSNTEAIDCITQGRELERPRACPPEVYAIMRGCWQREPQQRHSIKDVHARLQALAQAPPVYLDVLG

For the molecule `O=C(c1n[nH]c2ncnc(NC3CCCC(O)C3O)c12)N1CC(F)CC1c1cc(F)ccc1OC(F)(F)F` (stereo not drawn) [Compound 243], the IC50 (on wild type NTRK1 enzyme; in experiment [1]; in experiment [2]) was less than 10 nM each time.
As to `O=C(NCc1cc(F)ccc1OC(F)(F)F)c1n[nH]c2ncnc(N[C@@H]3CC[C@@H](O)[C@H]3O)c12` [Compound 101], the IC50 on wild type NTRK1 enzyme was 100 to 1000 nM; in experiment [1] (Homo sapiens, KM12, 72 h), 100 to 1000 nM; in experiment [2] (Homo sapiens, KM12, 72 h), 100 to 1000 nM.
Take `O=C(NC(CO)c1cc(F)ccc1F)c1n[nH]c2ncnc(NC3CC(F)CC3O)c12` (stereo not drawn) [Compound 61]: the IC50 was 100 to 1000 nM on wild type NTRK1 enzyme; 100 to 1000 nM in experiment [1] (Homo sapiens, KM12, 72 h); more than 1000 nM in experiment [2] (Homo sapiens, KM12, 72 h).
For the molecule `O=C(c1n[nH]c2ncnc(N[C@H]3[C@H](O)[C@H](O)[C@@H]4C[C@@H]43)c12)N1C[C@@H](F)C[C@@H]1c1ccccc1` [Compound 153], the IC50 (on wild type NTRK1 enzyme; in experiment [1]; in experiment [2]) was 10 to 100 nM in each case.
Take `CN(Cc1cc(F)cnc1Cl)C(=O)c1n[nH]c2ncnc(NC3CCOCC3O)c12` (stereo not drawn) [Compound 150]: the IC50 (on wild type NTRK1 enzyme; in experiment [1]; in experiment [2]) was 10 to 100 nM each time.
In the case of `O=C(c1n[nH]c2ncnc(N[C@@H]3CCC[C@H]3O)c12)N1C[C@@H](F)C[C@@H]1c1cc(F)cnc1Cl` [Compound 177], the IC50 on wild type NTRK1 enzyme is less than 10 nM; in experiment [1] (Homo sapiens, KM12, 72 h), less than 10 nM; in experiment [2] (Homo sapiens, KM12, 72 h), less than 10 nM.
Take `O=C(c1n[nH]c2ncnc(N[C@@H]3CCOC[C@H]3O)c12)N1C[C@@H](F)C[C@@H]1c1cc(Cl)ccc1F` [Compound 200]: the IC50 at wild type NTRK1 enzyme was less than 10 nM; in experiment [1] (Homo sapiens, KM12, 72 h), 10 to 100 nM; in experiment [2] (Homo sapiens, KM12, 72 h) it was 10 to 100 nM.
